What all share (assay type): cell-based, human
The subject of one test is MCF7. Put plainly: Proliferation assay MCF7. Particulars: MCF7, estrogen receptor-positive mamma carcinoma; 4 days, crystal violet. The method, then: (§1) Cultivated human tumor cells (originally obtained from ATCC, HeLa-MaTu and HeLa-MaTu-ADR, originally obtained from Epo GmbH, Berlin, Germany) were plated at a density of 1000 to 5000 cells/measuring point, depending on the growth rate of the cell line, in a 96-well multititer plate in 200 μl of growth medium (DMEM/HAMS F12, 2 mM L-glutamine, 10% fetal calf serum). After 24 hours the cells of one plate (zero-point plate) were stained with crystal violet (see below), whereas the medium of the other plates was replaced with fresh culture medium (200 μl), to which the test substances had been added at various concentrations (0 μM, and in the range 0.01-30 μM; the final concentration of the solvent dimethyl sulfoxide was 0.5%). The cells were incubated for 4 days in the presence of the test substances. Cellular proliferation was determined by staining the cells with crystal violet: the cells were fixed by adding 20 μl/measuring point of an 11% glutaraldehyde solution for 15 min at room temperature. After washing the fixed cells with water three times, the plates were dried at room temperature. The cells were stained by adding 100 μl/measuring point of a 0.1% crystal violet solution (pH adjusted to pH3 by adding acetic acid). After washing the stained cells with water three times, the plates were dried at room temperature. The dye was dissolved by adding 100 μl/measuring point of a 10% acetic acid solution. The extinction was determined photometrically at a wavelength of 595 nm. The percentage change in cell growth was calculated by standardization of the measured values to the extinction values of the zero-point plate (=0%) and the extinction of the untreated (0 μM) cells (=100%). The measured data were standardized to 0% inhibition (cell proliferation without inhibitor) and 100% inhibition (zero-point plate). The IC50 values were determined by means of a 4-parameter fit using the company's own software.
(§2) The substances were examined in the following cell lines which, in an exemplary manner, represent the stated indications: […]

The subject of a further test is Caco-2. Put plainly: Proliferation assay Caco-2. Particulars: Caco-2, colon/rectum carcinoma; 4 days, crystal violet. The method, then: as §1, §2
In the next test the test system is DU145. The test can be described thus: Proliferation assay DU145. Particulars: DU145, prostate carcinoma; 4 days, crystal violet. The method, then:
as §1, §2

The test system of a further test is NCI-H460. The test can be described thus: Proliferation assay NCI-H460. Particulars: NCI-H460, non-small-cell bronchial carcinoma; 4 days, crystal violet. The method, then: as §1, §2
For a further test, the system named is HeLa-MaTu-ADR. The test can be described thus: Proliferation assay HeLa-MaTu-ADR. Particulars: cervix carcinoma, 4 days, crystal violet. The method, then: as §1, §2

The text below walks through data of patent US20130210846A1, “USE OF NOVEL PAN-CDK INHIBITORS FOR TREATING TUMORS” (BAYER INTELLECTUAL PROPERTY GMBH, priority 2010, published 2013).

pIC50: −log10 of the molar value.

With `C[C@@H](Nc1nc(Nc2ccc(S(C)(=N)=O)cc2)ncc1C(F)(F)F)C(C)(C)O` (mixture of isomers) [Example 9-SI-1, (RS)—S-(4-{[4-{[(1R)-2-Hydroxy-1,2-dimethylpropyl]amino}-5-(trifluoromethyl)pyrimidin-2-yl]amino}phenyl)-S-methylsulfoximide], the pIC50 with MCF7 is 7.05; in the test with Caco-2 it was 7.21; with DU145 it was 7.47; in the test with NCI-H460 it was 7.47; in the test on HeLa-MaTu-ADR, 7.72.

With `C[C@@H](O)[C@@H](C)Oc1nc(Nc2ccc(S(C)(=N)=O)cc2)ncc1C(F)(F)F` (mixture of isomers) [Example 2-SI-1, (RS)—S-(4-{[4-{[(1R,2R)-2-Hydroxy-1-methylpropyl]oxy}-5-(trifluoromethyl)pyrimidin-2-yl]-amino}phenyl)-S-methylsulfoximide], the pIC50 with MCF7 was 7.41; with Caco-2 it was 7.10; in the test on DU145, 7.55; in the test on NCI-H460, 7.17; with HeLa-MaTu-ADR it was 7.49.

As for `C[C@@H](O)[C@@H](C)Nc1nc(Nc2ccc(S(C)(=N)=O)cc2)ncc1C(F)(F)F` (mixture of isomers) [Example 8-SI-1, (RS)—S-(4-{[4-{[(1R,2R)-2-Hydroxy-1-methylpropyl]amino}-5-(trifluoromethyl)pyrimidin-2-yl]-amino}phenyl)-S-methylsulfoximide], the pIC50 in the test with DU145 was 7.19.

In general, pIC50 refers to the negative decadic logarithm of the IC50, by convention in mol/L. The low end stands for a high IC50, the high end for a low IC50.
